Where “and” joins values, the source holds several entries; their conditions need not be identical. Identical values can stand only once.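 96-well plates; 48 h exposure; 5 concentrations. Endpoints by linear interpolation between flanking doses. Not reached: highest tested concentration assigned. Abbreviation: GI50, concentration required for 50% inhibition of growth. TGI is the concentration that stops growth completely.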
Legend:
Test in all cases: growth of human tumour cells (NCI), 48 h
[1] = tested on: PC-3 prostate
[2] = tested on: MDA-N
[3] = tested on: OVCAR-8 ovarian
[4] = tested on: SK-MEL-28 melanoma
[5] = tested on: BT-549 breast
[6] = tested on: OVCAR-5 ovarian
[7] = tested on: HS 578T breast
[8] = tested on: SF-295 CNS
[9] = tested on: HCT-116 colon
[10] = tested on: LOX IMVI melanoma
[11] = tested on: HCT-15 colon
[12] = tested on: CAKI-1 renal
[13] = tested on: HOP-92 NSCLC
[14] = tested on: MDA-MB-231 breast
[15] = tested on: CCRF-CEM leukemia
[16] = tested on: MOLT-4 leukemia
[17] = tested on: OVCAR-3 ovarian
[18] = tested on: UACC-257 melanoma
[19] = tested on: SK-MEL-5 melanoma
[20] = tested on: 786-0 renal
[21] = tested on: TK-10 renal
[22] = tested on: ACHN renal
[23] = tested on: OVCAR-4 ovarian
[24] = tested on: SK-OV-3 ovarian
[25] = tested on: RPMI-8226 leukemia
[26] = tested on: SW-620 colon
[27] = tested on: KM12 colon
[28] = tested on: SK-MEL-2 melanoma
[29] = tested on: T-47D breast
[30] = tested on: IGROV1 ovarian
[31] = tested on: SN12C renal
[32] = tested on: A549 NSCLC
[33] = tested on: NCI-H23 lung
[34] = tested on: A498 renal
[35] = tested on: HOP-62 NSCLC
[36] = tested on: K-562 leukemia
[37] = tested on: UACC-62 melanoma
[38] = tested on: NCI-H522 lung
[39] = tested on: NCI-H460 lung
[40] = tested on: MDA-MB-435
[41] = tested on: HT29 colon
[42] = tested on: U251 CNS
[43] = tested on: COLO 205 colon
[44] = tested on: RXF 393 renal
[45] = tested on: M14 melanoma
[46] = tested on: MCF7 breast
[47] = tested on: HL-60(TB) leukemia
[48] = tested on: NCI-H226 lung
[49] = tested on: HCC-2998 colon
[50] = tested on: SNB-75 CNS
[51] = tested on: DU-145 prostate
[52] = tested on: SNB-19 CNS
[53] = tested on: SF-539 CNS
[54] = tested on: EKVX NSCLC
[55] = tested on: SR leukemia
[56] = tested on: UO-31 renal
[57] = tested on: SF-268 CNS
[58] = tested on: NCI/ADR-RES ovarian
[59] = tested on: MALME-3M melanoma

O=[N+]([O-])c1ccc(N=Nc2c(O)ccc3ccccc23)cc1
TGI [1]: > 100 µM | TGI [2]: > 100 µM | GI50 [3]: > 100 µM | TGI [3]: > 100 µM | TGI [4]: > 100 µM | GI50 [5]: 30.3 µM and > 100 µM | TGI [5]: 96.1 µM and > 100 µM | TGI [6]: > 100 µM | GI50 [7]: 18.3 µM and > 100 µM | TGI [7]: 46.6 µM and > 100 µM | GI50 [8]: 29.8 µM and > 100 µM | TGI [8]: > 100 µM | TGI [9]: > 100 µM | TGI [10]: > 100 µM | TGI [11]: > 100 µM | TGI [12]: > 100 µM | GI50 [13]: 32.5 µM and > 100 µM | TGI [13]: > 100 µM | TGI [14]: > 100 µM | GI50 [15]: 28.4 µM and > 100 µM | TGI [15]: > 100 µM | TGI [16]: > 100 µM | TGI [17]: > 100 µM | TGI [18]: > 100 µM | TGI [19]: > 100 µM | TGI [20]: > 100 µM | GI50 [21]: 28 µM and > 100 µM | TGI [21]: > 100 µM | GI50 [22]: 31.3 µM and > 100 µM | TGI [22]: > 100 µM | GI50 [23]: 24.3 µM and > 100 µM | TGI [23]: 65.7 µM and > 100 µM | GI50 [24]: 20.2 µM and > 100 µM | TGI [24]: > 100 µM | TGI [25]: > 100 µM | TGI [26]: > 100 µM | GI50 [27]: 19.7 µM and > 100 µM | TGI [27]: > 100 µM | TGI [28]: > 100 µM | TGI [29]: > 100 µM | TGI [30]: > 100 µM | TGI [31]: > 100 µM | GI50 [32]: 28.2 µM and > 100 µM | TGI [32]: > 100 µM | GI50 [33]: 42.9 µM and > 100 µM | TGI [33]: > 100 µM | TGI [34]: > 100 µM | GI50 [35]: 14.5 µM and > 100 µM | TGI [35]: 37.4 µM and > 100 µM | TGI [36]: > 100 µM | GI50 [37]: 18.3 µM and > 100 µM | TGI [37]: > 100 µM | GI50 [38]: 35.9 µM | TGI [38]: > 100 µM | TGI [39]: > 100 µM | TGI [40]: > 100 µM | GI50 [41]: 35.8 µM and > 100 µM | TGI [41]: > 100 µM | GI50 [42]: 22.5 µM and > 100 µM | TGI [42]: 67 µM and > 100 µM | TGI [43]: > 100 µM | GI50 [44]: 38 µM and > 100 µM | TGI [44]: > 100 µM | GI50 [45]: 43.6 µM and > 100 µM | TGI [45]: > 100 µM | TGI [46]: > 100 µM | GI50 [47]: 38.4 µM and > 100 µM | TGI [47]: > 100 µM | GI50 [48]: 35.4 µM and > 100 µM | TGI [48]: > 100 µM | TGI [49]: > 100 µM | GI50 [50]: 39.3 µM and > 100 µM | TGI [50]: > 100 µM | TGI [51]: > 100 µM | TGI [52]: > 100 µM | TGI [53]: > 100 µM | GI50 [54]: 28 µM and > 100 µM | TGI [54]: > 100 µM | TGI [55]: > 100 µM | TGI [56]: > 100 µM | GI50 [57]: 35.9 µM and > 100 µM | TGI [57]: > 100 µM

N#Cc1sc2c(c1OC(=O)c1cccs1)c(=O)n(-c1ccccc1)c(=S)n2-c1ccccc1
TGI [1]: 64.6 µM | TGI [2]: 68.5 µM | TGI [3]: 81.6 µM | TGI [4]: 61.6 µM | TGI [5]: 77.8 µM | TGI [7]: 43.6 µM | TGI [8]: 55.8 µM | TGI [9]: 34.2 µM | TGI [10]: 54.2 µM | TGI [11]: 40 µM | TGI [12]: > 100 µM | TGI [14]: 45.1 µM | TGI [16]: 62.3 µM | TGI [17]: > 100 µM | TGI [18]: > 100 µM | TGI [19]: 29.5 µM | TGI [20]: 90.6 µM | TGI [21]: > 100 µM | TGI [23]: 73.5 µM | TGI [24]: > 100 µM | TGI [25]: 49.6 µM | TGI [26]: 84.6 µM | TGI [27]: 43.6 µM | TGI [28]: 51 µM | TGI [29]: 34.1 µM | TGI [30]: 39.4 µM | TGI [31]: 47.2 µM | TGI [32]: > 100 µM | TGI [33]: 93.5 µM | TGI [35]: 49.5 µM | TGI [36]: 83.4 µM | TGI [37]: 35.2 µM | TGI [38]: 34.3 µM | TGI [39]: > 100 µM | TGI [40]: > 100 µM | TGI [41]: > 100 µM | TGI [42]: 55.5 µM | TGI [43]: 42.5 µM | TGI [44]: 31.9 µM | TGI [58]: 50.1 µM | TGI [45]: 38.2 µM | TGI [46]: 49.7 µM | TGI [47]: 47.5 µM | TGI [59]: 40.7 µM | TGI [48]: 43.4 µM | TGI [50]: > 100 µM | TGI [51]: > 100 µM | TGI [52]: > 100 µM | TGI [53]: 49.6 µM | TGI [54]: 89.9 µM | TGI [55]: 71.4 µM | TGI [56]: 32.7 µM | TGI [57]: 86 µM

CCC1=CC2Cc3nc4cc(Cl)ccc4c(N)c3C(C1)C2 (stereo not drawn)
TGI [1]: 18.4 µM | TGI [2]: 18 µM | TGI [3]: > 49.9 µM | TGI [4]: 7.5 µM | TGI [5]: 35.4 µM | TGI [6]: 15.4 µM | TGI [7]: 13.1 µM | TGI [8]: 12.2 µM | TGI [9]: 9.77 µM | TGI [10]: 19.2 µM | TGI [11]: > 37.7 µM | TGI [12]: 8.38 µM | TGI [13]: 6.48 µM | TGI [14]: 18.9 µM | TGI [15]: 15.9 µM | TGI [16]: 3.28 µM | TGI [17]: 21.9 µM | TGI [18]: 4.72 µM | TGI [19]: 4.05 µM | TGI [20]: 11.9 µM | TGI [21]: 13.6 µM | TGI [22]: 26.7 µM | TGI [23]: 17.2 µM | TGI [24]: 25.9 µM | TGI [25]: 5.79 µM | TGI [26]: 36 µM | TGI [27]: 19.5 µM | TGI [28]: 21.2 µM | TGI [29]: 7.3 µM | TGI [30]: 20.7 µM | TGI [31]: 28.2 µM | TGI [32]: 30.8 µM | TGI [33]: 17.3 µM | TGI [34]: 17.3 µM | TGI [35]: 22.5 µM | TGI [36]: 7.57 µM | TGI [37]: 18.4 µM | TGI [38]: 16.1 µM | TGI [39]: 18.5 µM | TGI [40]: 8.74 µM | TGI [41]: 10.8 µM | TGI [42]: 25.3 µM | TGI [43]: 7.11 µM | TGI [44]: 8.15 µM | TGI [58]: 27.6 µM | TGI [45]: 3.16 µM | TGI [46]: 17.6 µM | TGI [47]: 7.42 µM | TGI [59]: 9.46 µM | TGI [48]: 5.73 µM | TGI [49]: 3.69 µM | TGI [50]: 18.5 µM | TGI [51]: 28.9 µM | TGI [52]: 22.7 µM | TGI [53]: 28.8 µM | TGI [54]: 11.6 µM | TGI [56]: 20.6 µM | TGI [57]: 16.9 µM

From PubChem BioAssay (NCI)
